Here are results for one molecule from patent US12679840B2, “Process for the preparation of (9S)-N-[3-(6-methylpyrimidin-4-yl)-3-azabicyclo[3.2.1]octan-8-yl]-9-(2,3,4-trifluorophenyl)-6,7,8,9-tetrahydro-5H-[1,2,4]triazolo[1,5-a]azepin-2-amine and its solid form” (Hoffmann-La Roche Inc., priority 2020, dated 2026).

By solubility is commonly meant the dissolved amount per volume that the medium holds. A high value points to a readily soluble substance. Broadly, the Solubility is the dissolved amount per volume that the medium holds.

The structures appear in SMILES notation. Converted amounts (≈) assume the structure as drawn. “And” between values parts separate entries of the source, which are not always exact repeats. Equal values may be shown once.

This series is described as follows: Solubility study of Form A in buffers, water and biorelevant media (suspension shaken 24 hours at 25° C., filtrate by UPLC). In kind it is physicochemical. The following applies: for solubility at 24 h: thermodynamic from solid. The protocol:
• pH 1.00 buffer • pH 3.00 buffer • pH 5.00 buffer • pH 7.00 buffer • pH 9.00 buffer • Water • SGF without Triton • FaSSIF • FeSSIF b. Testing Procedure
Weigh about 5 mg of compound (I) into glass vial and add 0.5 ml testing medium listed above to form suspension. Shake these suspensions at 1200 rpm for about 24 hours under 25° C.
At the end of 24 hours, pull out all the vials and filter the suspensions by 0.22 μm PVDF filters. Check the pH value and concentration of filtrate by pH meter and UPLC respectively.
The result indicates the solubility is pH dependent.

In the case of `Cc1cc(N2CC3CCC(C2)C3Nc2nc3n(n2)CCCC[C@H]3c2ccc(F)c(F)c2F)ncn1` (stereo partly drawn) [Form A, (9S)-N-[3-(6-methylpyrimidin-4-yl)-3-azabicyclo[3.2.1]octan-8-yl]-9-(2,3,4-trifluorophenyl)-6,7,8,9-tetrahydro-5H-[1,2,4]triazolo[1,5-a]azepin-2-amine], the solubility at 24 h was 34 µg/mL (≈ 70.3 µM) (FaSSIF, 25 °C, about 24 hours, individual replicate); 33 µg/mL (≈ 68.2 µM) (FaSSIF, 25 °C, about 24 hours, mean ± spread of three replicates); 614 µg/mL (≈ 1270 µM) (FeSSIF, 25 °C, about 24 hours, individual replicate); 618 ± 7 µg/mL (≈ 1280 µM) (FeSSIF, 25 °C, about 24 hours, mean ± spread of three replicates); above 10000 µg/mL (SGF without Triton-X100, 25 °C, simulated gastric fluid, SGF without Triton-X100, about 24 hours, individual replicate); above 10000 µg/mL (SGF without Triton-X100, 25 °C, simulated gastric fluid, SGF without Triton-X100, about 24 hours, mean of three replicates). Also, the solubility at 24 h is above 10000 µg/mL (pH 1.0 buffer, 25 °C, pH 1, aqueous buffer, about 24 hours, individual replicate); above 10000 µg/mL (pH 1.0 buffer, 25 °C, pH 1, aqueous buffer, about 24 hours, mean of three replicates); 5480 µg/mL (≈ 11300 µM) (pH 3.0 buffer, 25 °C, pH 3, aqueous buffer, about 24 hours, individual replicate); 5347 ± 47 µg/mL (≈ 11100 µM) (pH 3.0 buffer, 25 °C, pH 3, aqueous buffer, about 24 hours, mean ± spread of three replicates); 91 µg/mL (≈ 188 µM) (pH 5.0 buffer, 25 °C, pH 5, aqueous buffer, about 24 hours, individual replicate); 101 ± 9 µg/mL (≈ 209 µM) (pH 5.0 buffer, 25 °C, pH 5, aqueous buffer, about 24 hours, mean ± spread of three replicates). In addition, the solubility at 24 h is 7 µg/mL (≈ 14.5 µM) (pH 7.0 buffer, 25 °C, pH 7, aqueous buffer, about 24 hours, individual replicate); 6 µg/mL (≈ 12.4 µM) (pH 7.0 buffer, 25 °C, pH 7, aqueous buffer, about 24 hours, mean ± spread of three replicates); 6 µg/mL (≈ 12.4 µM) (pH 9.0 buffer, 25 °C, pH 9, aqueous buffer, about 24 hours, individual replicate); 6 µg/mL (≈ 12.4 µM) (pH 9.0 buffer, 25 °C, pH 9, aqueous buffer, about 24 hours, mean ± spread of three replicates); 7 µg/mL (≈ 14.5 µM) (water, 25 °C, about 24 hours, individual replicate); 6 µg/mL (≈ 12.4 µM) (water, 25 °C, about 24 hours, mean ± spread of three replicates). In addition, the Solubility was 33 µg/mL (≈ 68.2 µM) (FaSSIF, about 24 hours, individual replicate); 611 µg/mL and 628 µg/mL (FeSSIF, about 24 hours, individual replicate); 6 µg/mL (≈ 12.4 µM) (Water, about 24 hours, individual replicate); 5366 µg/mL and 5468 µg/mL (pH 3.0 buffer, about 24 hours, individual replicate); 97 µg/mL and 114 µg/mL (pH 5.0 buffer, about 24 hours, individual replicate); 6 µg/mL (≈ 12.4 µM) (pH 7.0 buffer, about 24 hours, individual replicate).
